Data on 19 compounds can be found in patent US12595248B2, “PRMT5 inhibitors” (Merck Sharp & Dohme LLC, priority 2019, dated 2026).

Read-outs that look alike come from different tables or passages of the source. Some results are limits rather than exact numbers.

Test [1] deals with T1, PRMT5-MEP50 enzyme complex (Homo sapiens, UniProt O14744).
T1 construct: Full-length (FL)-PRMT5-MEP50 enzyme complex (recombinant proteins from baculovirus-transfected Sf21 cells: FL-PRMT5; MW=73837 kDa and FL-MEP50; MW=38614); made in house; host or cells: baculovirus-transfected Sf21 cells
T1 sequence (O14744 whole entry): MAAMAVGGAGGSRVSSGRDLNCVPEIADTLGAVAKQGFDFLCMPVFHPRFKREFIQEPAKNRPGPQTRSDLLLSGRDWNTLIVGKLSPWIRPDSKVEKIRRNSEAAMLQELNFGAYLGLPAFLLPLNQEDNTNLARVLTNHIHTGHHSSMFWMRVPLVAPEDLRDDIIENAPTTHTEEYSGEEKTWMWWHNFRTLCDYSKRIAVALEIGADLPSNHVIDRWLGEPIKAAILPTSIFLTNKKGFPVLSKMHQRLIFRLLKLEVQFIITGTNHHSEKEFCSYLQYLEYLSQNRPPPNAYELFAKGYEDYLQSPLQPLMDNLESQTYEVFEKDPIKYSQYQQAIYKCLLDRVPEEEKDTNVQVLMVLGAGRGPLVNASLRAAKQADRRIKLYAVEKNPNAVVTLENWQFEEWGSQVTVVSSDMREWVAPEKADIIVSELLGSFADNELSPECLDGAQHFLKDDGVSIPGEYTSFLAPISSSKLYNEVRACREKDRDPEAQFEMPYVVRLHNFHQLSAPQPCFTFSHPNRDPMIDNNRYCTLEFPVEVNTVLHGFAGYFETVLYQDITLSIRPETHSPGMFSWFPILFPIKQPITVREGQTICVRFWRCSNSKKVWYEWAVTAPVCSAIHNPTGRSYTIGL
T1 sequence (Q9BQA1 whole entry partner): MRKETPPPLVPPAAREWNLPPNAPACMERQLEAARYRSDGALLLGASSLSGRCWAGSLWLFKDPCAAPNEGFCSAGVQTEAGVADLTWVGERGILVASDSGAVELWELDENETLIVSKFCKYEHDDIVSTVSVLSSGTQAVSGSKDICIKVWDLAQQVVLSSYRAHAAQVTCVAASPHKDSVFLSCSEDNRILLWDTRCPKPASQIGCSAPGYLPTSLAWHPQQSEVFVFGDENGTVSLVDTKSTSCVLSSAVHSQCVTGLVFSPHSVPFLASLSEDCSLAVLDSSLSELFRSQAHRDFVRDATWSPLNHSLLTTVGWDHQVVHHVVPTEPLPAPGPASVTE
The experiment in a line: PRMT5-MEP50 Enzyme Methylation Assay (Version A). Type of test: biochemical. On the procedure: PRMT5-MEP50 Enzyme Methylation Assay (Version A)
PRMT5-MEP50 biochemical assay is a direct measurement of the methylation activity of the enzyme complex on a short peptide substrate derived from the N-terminus of H4 histone. Methylation experiment was performed with recombinant PRMT5-MEP50 protein complex. The assessment of inhibitory effect of small molecules was measured by the effectiveness of the compounds to inhibit this reaction (EC50).
In this assay, the potency (EC50) of each compound was determined from a twenty-point (1:2 serial dilution; top compound concentration of 100000 nM) titration curve using the following outlined procedure. To each well of a white ProxiPlus 384 well-plate, 100 nL of compound (1% DMSO in final assay volume of 10 μL) was dispensed, followed by the addition of 8 μL of 1× assay buffer (50 mM Bicine pH 8.0, 1 mM DTT, 0.004% Tween20, 0.01% BSA) containing 1.25 nM of Full-length (FL)-PRMT5-MEP50 enzyme complex (recombinant proteins from baculovirus-transfected Sf21 cells: FL-PRMT5; MW=[…] and FL-MEP50; MW=38614) and 1 μL of 150 μM S-(5′-Adenosyl)-L-Methionine Chloride (SAM). A plate was sealed and placed in a 37° C. humidified chamber for a 60 minutes pre-incubation with compound. Subsequently, each reaction was initiated by the addition of 1 μL 1× assay buffer containing 750 nM biotinylated H4R3 (MeI) peptide. The final reaction in each well of 10 μL consists of 1.0 nM PRMT5-MEP50, 75 nM biotinylated-peptide, and 15 μM SAM. Methylation reactions were allowed to proceed for 150 minutes in a sealed plate at 37° C. Reactions were immediately quenched by the addition of 1 μL of 5% formic acid. A plate was then frozen and shipped to SAMDI™ Tech Inc. to determine the percent conversion from H4R3 (MeI) to H4R3 (Me2). Dose-response curves were generated by plotting percent effect (% product conversion; Y-axis) vs. Log 10 compound concentrations (X-axis). EC50 values were determined by non-linear regression according to models for either sigmoidal (4 parameters) or biphasic (7 parameters) dose-response curves.

Another test concerns the target T2, PRMT5 (Homo sapiens, UniProt O14744).
T2 construct: seeded with 4000 MCF-7 cells in 30 μl media; endogenous in cells; host or cells: MCF-7 cells
The experiment in a line: PRMT5 Cell Target Engagement (TE) Assay. As to conditions: MCF-7 cells, treated for 3 days, symmetric dimethylation of arginine (SDMA) by high content imaging. Type of test: cell-based. The method in brief: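 MCF-7 cells treated 3 days at 37 °C with a ten-point 1:3 titration from 10000 nM. Fixed cells immunostained with anti-SDMA and Alexa488 secondary; nuclear fluorescence quantified by high-content imaging versus DMSO wells, with IC50 from a 4-parameter fit.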

Where [2] appears, read: first of two EC50s: 7 parameters biphasic model, read-out: Enzyme Methylation Assay Version A (EC50_1).
Where [3] appears, read: second of two EC50s: 7 parameters biphasic model, read-out: Enzyme Methylation Assay Version A (EC50_2).
Where [4] appears, read: only one EC50 shown: 4 parameters single site sigmoidal model, 60 min pre-incubation with SAM, read-out: Enzyme Methylation Assay Version A (EC50).

T2 sequence (O14744 whole entry): as the sequence (O14744 whole entry) above
T2 sequence (Q9BQA1 whole entry partner): as the sequence (Q9BQA1 whole entry partner) above

Take `Cc1c(Br)cnc2nc(C(=O)N3CC[C@H](N4CCc5ccccc5C4)[C@@H](O)C3)cn12` [Example 66, (6-bromo-5-methylimidazo[1,2-a]pyrimidin-2-yl)((3S,4S)-4-(3,4-dihydroisoquinolin-2(1H)-yl)-3-hydroxypiperidin-1-yl)methanone]: the EC50 is 5.2 nM in test [1] (setting [2]), 861 nM in test [1] (setting [3]) and 1810 nM on PRMT5.

Take `Cc1nc2nc(C(=O)N3CC[C@H](N4CCc5ccccc5C4)[C@@H](O)C3)cn2cc1Br` [Example 67, (6-bromo-7-methylimidazo[1,2-a]pyrimidin-2-yl)((3S,4S)-4-(3,4-dihydroisoquinolin-2(1H)-yl)-3-hydroxypiperidin-1-yl)methanone]: the EC50 in test [1] (setting [2]) was 0.6 nM; in test [1] (setting [3]), 53 nM; on PRMT5 it was 49 nM.

Turning to `COc1nc2nc(C(=O)N3CC[C@H](N4CCc5ccccc5C4)[C@@H](O)C3)cn2cc1Br` [Example 69, (6-bromo-7-methoxyimidazo[1,2-a]pyrimidin-2-yl)((3S,4S)-4-(3,4-dihydroisoquinolin-2(1H)-yl)-3-hydroxypiperidin-1-yl)methanone], the EC50 in test [1] (setting [2]) was found to be 1.2 nM; in test [1] (setting [3]), 733 nM; on PRMT5 it was 55 nM.

In the case of `O=C(c1cn2cc(Br)c(O)nc2n1)N1CC[C@H](N2CCc3ccccc3C2)[C@@H](O)C1` [Example 70, (6-bromo-7-hydroxyimidazo[1,2-a]pyrimidin-2-yl)((3S,4S)-4-(3,4-dihydroisoquinolin-2(1H)-yl)-3-hydroxypiperidin-1-yl)methanone], the EC50 was about 45 nM in test [1] (setting [2]), 86100 nM in test [1] (setting [3]) and over 10000 nM on PRMT5.

Consider `O=C(c1cn2cc(Br)cnc2n1)N1CC[C@H](N2CCc3ccccc3C2)[C@@H](O)C1` [Example 71, (6-bromoimidazo[1,2-a]pyrimidin-2-yl)[(3S,4S)-4-(3,4-dihydroisoquinolin-2(1H)-yl)-3-hydroxypiperidin-1-yl]methanone], for which the EC50 is 1.1 nM in test [1] (setting [4]) and 10 nM at PRMT5.

As for `Cc1cnc2nc(C(=O)N3CC[C@H](N4CCc5ccccc5C4)[C@@H](O)C3)cn2c1` [Example 72, [(3S,4S)-4-(3,4-dihydroisoquinolin-2(1H)-yl)-3-hydroxypiperidin-1-yl](6-methylimidazo[1,2-a]pyrimidin-2-yl)methanone], the values for the EC50 (in test [1] (setting [2]); in test [1] (setting [3]); on PRMT5) were 0.9 nM, 248 nM and 37 nM, respectively.

As for `Cc1nc2ncc(C(=O)N3CC[C@H](N4CCc5ccccc5C4)[C@@H](O)C3)n2cc1Br` [Example 75, (6-bromo-7-methylimidazo[1,2-a]pyrimidin-3-yl)[(3S,4S)-4-(3,4-dihydroisoquinolin-2(1H)-yl)-3-hydroxypiperidin-1-yl]methanone], the EC50 in test [1] (setting [2]) stood at 41 nM; in test [1] (setting [3]), 1550 nM; on PRMT5, 647 nM.

Turning to `Cc1c(Br)cnc2ncc(C(=O)N3CC[C@H](N4CCc5ccccc5C4)[C@@H](O)C3)n12` [Example 76, (6-bromo-5-methylimidazo[1,2-a]pyrimidin-3-yl)[(3S,4S)-4-(3,4-dihydroisoquinolin-2(1H)-yl)-3-hydroxypiperidin-1-yl]methanone], the EC50 stood at 3.1 nM in test [1] (setting [2]), 1680 nM in test [1] (setting [3]) and 2230 nM at PRMT5.

As for `CC(C#N)c1cnc2nc(C(=O)N3CC[C@H](N4CCc5ccccc5C4)[C@@H](O)C3)cn2c1` (stereo partly drawn) [Example 77, 2-{2-[(3S,4S)-4-(3,4-dihydroisoquinolin-2(1H)-yl)-3-hydroxypiperidine-1-carbonyl]imidazo[1,2-a]pyrimidin-6-yl}propanenitrile], the EC50 in test [1] (setting [4]) is 2.1 nM; on PRMT5 it was 13 nM.

On to `O=C(c1cn2cc(Br)c(C3CC3)nc2n1)N1CC[C@H](N2CCc3ccccc3C2)[C@@H](O)C1` [Example 78, (6-bromo-7-cyclopropylimidazo[1,2-a]pyrimidin-2-yl)[(3S,4S)-4-(3,4-dihydroisoquinolin-2(1H)-yl)-3-hydroxypiperidin-1-yl]methanone], for which the EC50 in test [1] (setting [4]) turned out to be 0.7 nM; at PRMT5, 21 nM.

As to `CC(C)c1nc2nc(C(=O)N3CC[C@H](N4CCc5ccccc5C4)[C@@H](O)C3)cn2cc1Br` [Example 79, [6-bromo-7-(propan-2-yl)imidazo[1,2-a]pyrimidin-2-yl][(3S,4S)-4-(3,4-dihydroisoquinolin-2(1H)-yl)-3-hydroxypiperidin-1-yl]methanone], the EC50 in test [1] (setting [4]) is 0.7 nM; on PRMT5 it was 4.9 nM.

Consider `CC1(C)Oc2ccc(C(=O)N3CC[C@H](N4CCc5ccccc5C4)[C@@H](O)C3)cc2NC1=O` [Example 101, 6-((3S,4S)-4-(3,4-dihydroisoquinolin-2(1H)-yl)-3-hydroxypiperidine-1-carbonyl)-2,2-dimethyl-2H-benzo[b][1,4]oxazin-3(4H)-one], for which the EC50 in test [1] (setting [2]) is 0.9 nM; in test [1] (setting [3]), 2880 nM; on PRMT5, 16 nM.

As to `O=C(c1ccc2c(c1)NCCN(CC(F)(F)F)C2=O)N1CC[C@H](N2CCc3ccccc3C2)[C@@H](O)C1` [Example 102, 8-((3S,4S)-4-(3,4-dihydroisoquinolin-2(1H)-yl)-3-hydroxypiperidine-1-carbonyl)-4-(2,2,2-trifluoroethyl)-1,2,3,4-tetrahydro-5H-benzo[e][1,4]diazepin-5-one], the EC50 in test [1] (setting [2]) came to 1.5 nM; in test [1] (setting [3]), 905 nM; at PRMT5, 10 nM.

`CC(C)(C)OC(=O)N1C2CCC1CC(Nc1cc(C(=O)N3CC[C@H](N4CCc5ccccc5C4)[C@@H](O)C3)c(F)cn1)C2` (stereo partly drawn) [Example 104, tert-butyl-3-((4-((3S,4S)-4-(3,4-dihydroisoquinolin-2(1H)-yl)-3-hydroxypiperidine-1-carbonyl)-5-fluoropyridin-2-yl)amino)-8-azabicyclo[3.2.1]octane-8-carboxylate]: the figures for the EC50 (in test [1] (setting [4]); on PRMT5) were 1.7 nM and 42 nM, respectively.

On to `CCOc1cnc(NC2CCN(C(C)=O)CC2)cc1C(=O)N1CC[C@H](N2CCc3ccccc3C2)[C@@H](O)C1` [Example 107, 1-(4-((4-((3S,4S)-4-(3,4-dihydroisoquinolin-2(1H)-yl)-3-hydroxypiperidine-1-carbonyl)-5-ethoxypyridin-2-yl)amino)piperidin-1-yl)ethan-1-one], for which the EC50 in test [1] (setting [4]) is 2.1 nM; at PRMT5 it was 7.9 nM.

`O=C(c1cc(NC2CCN(C(=O)C3CC3)CC2)ncc1F)N1CC[C@H](N2CCc3ccccc3C2)[C@@H](O)C1` [Example 108, (2-((1-(cyclopropanecarbonyl)piperidin-4-yl)amino)-5-fluoropyridin-4-yl)((3S,4S)-4-(3,4-dihydroisoquinolin-2(1H)-yl)-3-hydroxypiperidin-1-yl)methanone]: the figures for the EC50 (in test [1] (setting [4]); at PRMT5) were 1.3 nM and 3.8 nM, respectively.

As for `COC(=O)N1CCC(Nc2cc(C(=O)N3CC[C@H](N4CCc5ccccc5C4)[C@@H](O)C3)c(F)cn2)CC1` [Example 109, methyl 4-((4-((3S,4S)-4-(3,4-dihydroisoquinolin-2(1H)-yl)-3-hydroxypiperidine-1-carbonyl)-5-fluoropyridin-2-yl)amino)piperidine-1-carboxylate], the EC50 in test [1] (setting [4]) is 1.2 nM; at PRMT5 it was 3.5 nM.

Regarding `CN(C)C(=O)N1CCC(Nc2cc(C(=O)N3CC[C@H](N4CCc5ccccc5C4)[C@@H](O)C3)c(F)cn2)CC1` [Example 110, 4-((4-((3S,4S)-4-(3,4-dihydroisoquinolin-2(1H)-yl)-3-hydroxypiperidine-1-carbonyl)-5-fluoropyridin-2-yl)amino)-N,N-dimethylpiperidine-1-carboxamide], the EC50 in test [1] (setting [4]) is 1.4 nM; at PRMT5 it was 8.1 nM.

Turning to `CCC(=O)N1CCC(Nc2cc(C(=O)N3CC[C@H](N4CCc5ccccc5C4)[C@@H](O)C3)c(F)cn2)CC1` [Example 111, 1-(4-((4-((3S,4S)-4-(3,4-dihydroisoquinolin-2(1H)-yl)-3-hydroxypiperidine-1-carbonyl)-5-fluoropyridin-2-yl)amino)piperidin-1-yl)propan-1-one], the EC50 in test [1] (setting [4]) amounted to 1.4 nM; at PRMT5, 6.1 nM.
